# According to PubChem BioAssay (NCI):
#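 Briefly, cells in 96-well plates were exposed to five compound concentrations for 48 h, and endpoints were estimated by linear interpolation. GI50 marks 50% less growth. Definition used: TGI = concentration required for complete inhibition of growth.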
# How the values were obtained:
# Assay in all cases: NCI tumour cell line growth inhibition, 48 h
# NCI-H226 lung = system: NCI-H226 lung
# NCI-H23 lung = system: NCI-H23 lung
# NCI-H460 lung = system: NCI-H460 lung
# OVCAR-3 ovarian = system: OVCAR-3 ovarian
# OVCAR-4 ovarian = system: OVCAR-4 ovarian
# OVCAR-5 ovarian = system: OVCAR-5 ovarian
# OVCAR-8 ovarian = system: OVCAR-8 ovarian
# RPMI-8226 leukemia = system: RPMI-8226 leukemia
# RXF 393 renal = system: RXF 393 renal
# RXF-631 renal = system: RXF-631 renal
# SF-268 CNS = system: SF-268 CNS
# SF-295 CNS = system: SF-295 CNS
# SF-539 CNS = system: SF-539 CNS
# SK-MEL-2 melanoma = system: SK-MEL-2 melanoma
# SK-MEL-28 melanoma = system: SK-MEL-28 melanoma
# SK-MEL-5 melanoma = system: SK-MEL-5 melanoma
# SK-OV-3 ovarian = system: SK-OV-3 ovarian
# SN12C renal = system: SN12C renal
# SNB-19 CNS = system: SNB-19 CNS
# SNB-78 CNS = system: SNB-78 CNS
# SR leukemia = system: SR leukemia
# SW-620 colon = system: SW-620 colon
# TK-10 renal = system: TK-10 renal
# U251 CNS = system: U251 CNS
# UACC-257 melanoma = system: UACC-257 melanoma
# UACC-62 melanoma = system: UACC-62 melanoma
# UO-31 renal = system: UO-31 renal
smiles,measurement,setting,value
CC[O-].CC[O-].[O-]c1ccccc1C=NC12CC3CC(CC(C3)C1)C2.[O-]c1ccccc1C=NC12CC3CC(CC(C3)C1)C2.[Ti+4],GI50,NCI-H226 lung,> 100 µM
same,TGI,NCI-H226 lung,> 100 µM
same,GI50,NCI-H23 lung,50 µM
same,TGI,NCI-H23 lung,> 100 µM
same,GI50,NCI-H460 lung,> 100 µM
same,TGI,NCI-H460 lung,> 100 µM
same,GI50,OVCAR-3 ovarian,> 100 µM
same,TGI,OVCAR-3 ovarian,> 100 µM
same,GI50,OVCAR-4 ovarian,> 100 µM
same,TGI,OVCAR-4 ovarian,> 100 µM
same,GI50,OVCAR-5 ovarian,> 100 µM
same,TGI,OVCAR-5 ovarian,> 100 µM
same,GI50,OVCAR-8 ovarian,> 100 µM
same,TGI,OVCAR-8 ovarian,> 100 µM
same,GI50,RPMI-8226 leukemia,57.6 µM
same,TGI,RPMI-8226 leukemia,> 100 µM
same,GI50,RXF 393 renal,53.9 µM
same,TGI,RXF 393 renal,> 100 µM
same,GI50,RXF-631 renal,29.4 µM
same,TGI,RXF-631 renal,> 100 µM
same,GI50,SF-268 CNS,92.5 µM
same,TGI,SF-268 CNS,> 100 µM
same,GI50,SF-295 CNS,> 100 µM
same,TGI,SF-295 CNS,> 100 µM
same,GI50,SF-539 CNS,> 100 µM
same,TGI,SF-539 CNS,> 100 µM
same,GI50,SK-MEL-2 melanoma,35.8 µM
same,TGI,SK-MEL-2 melanoma,> 100 µM
same,GI50,SK-MEL-28 melanoma,> 100 µM
same,TGI,SK-MEL-28 melanoma,> 100 µM
same,GI50,SK-MEL-5 melanoma,19.9 µM
same,TGI,SK-MEL-5 melanoma,> 100 µM
same,GI50,SK-OV-3 ovarian,> 100 µM
same,TGI,SK-OV-3 ovarian,> 100 µM
same,GI50,SN12C renal,86.4 µM
same,TGI,SN12C renal,> 100 µM
same,GI50,SNB-19 CNS,> 100 µM
same,TGI,SNB-19 CNS,> 100 µM
same,GI50,SNB-78 CNS,> 100 µM
same,TGI,SNB-78 CNS,> 100 µM
same,GI50,SR leukemia,29.2 µM
same,TGI,SR leukemia,> 100 µM
same,GI50,SW-620 colon,> 100 µM
same,TGI,SW-620 colon,> 100 µM
same,GI50,TK-10 renal,> 100 µM
same,TGI,TK-10 renal,> 100 µM
same,GI50,U251 CNS,> 100 µM
same,TGI,U251 CNS,> 100 µM
same,GI50,UACC-257 melanoma,> 100 µM
same,TGI,UACC-257 melanoma,> 100 µM
same,GI50,UACC-62 melanoma,19.6 µM
same,TGI,UACC-62 melanoma,> 100 µM
same,GI50,UO-31 renal,92.3 µM
same,TGI,UO-31 renal,> 100 µM
